Assays:
[1] = test system: PC-12; experiment: Neuroprotective activity against CoCl2-induced neuronal injury in rat PC-12 cells assessed as increase in cell viability; type: functional, cell-based
[2] = test system: PC-12; experiment: Neuroprotective activity against CoCl2-induced neuronal injury in rat PC-12 cells assessed as cell viability at 30 uM relative to control; type: functional; conditions: read-out: Activity
[3] = Rattus norvegicus, PC-12, read-out: EC50

CC(=O)[C@@H]1CC[C@]2(C(=O)O)C[C@H](O)[C@]3(C)[C@H](CC[C@@H]4[C@@]5(C)CCC(=O)C(C)(C)[C@@H]5C[C@H](O)[C@]43C)[C@@H]12
EC50 ([1]; pc-12): Not Active | viability at 30 µM [2]: 104%

CC(=O)[C@@H]1CC[C@]2(C(=O)O)CC[C@]3(C)[C@H](C[C@@H](O)[C@@H]4[C@@]5(C)CCC(=O)C(C)(C)[C@@H]5C[C@H](O)[C@]43C)[C@@H]12
EC50 ([1]; pc-12): Not Active | viability at 30 µM [2]: 105%

CC(=O)[C@@H]1CC[C@]2(C(=O)O)C[C@H](O)[C@]3(C)[C@H](CC[C@@H]4[C@@]5(C)CC[C@H](O)C(C)(C)[C@@H]5C[C@H](O)[C@]43C)[C@@H]12
EC50 ([1]; pc-12): Not Active | viability at 30 µM [2]: 99.4%

CC(=O)[C@@H]1CC[C@]2(C(=O)O)CC[C@]3(C)[C@H](CC[C@@H]4[C@@]5(C)CCC(=O)C(C)(C)[C@@H]5C[C@H](O)[C@]43C)[C@@H]12
EC50 ([1]; pc-12): Not Active | viability at 30 µM [2]: 96%

CC(=O)[C@@H]1CC[C@]2(C(=O)O)CC[C@]3(C)[C@H](CC[C@@H]4[C@@]5(C)CC[C@H](O)C(C)(C)[C@@H]5CC[C@]43C)[C@@H]12 [PLATANIC ACID]
EC50 [1, 3]: 170 nM | viability at 30 µM [2]: 96.8%

OC[C@H]1O[C@@H](OCCc2ccc(O)cc2)[C@H](O)[C@@H](O)[C@@H]1O [SALIDROSIDE]
viability at 30 µM [2]: 99.2%

CC(=O)[C@@H]1CC[C@]2(C(=O)O)CC[C@]3(C)[C@H](CC[C@@H]4[C@@]5(C)CC[C@H](O)C(C)(C)[C@@H]5C[C@H](O)[C@]43C)[C@@H]12
EC50 ([1]; pc-12): Not Active | viability at 30 µM [2]: 105%

CC(=O)[C@@H]1CC[C@]2(C(=O)O)CC[C@]3(C)[C@H](CC[C@@H]4[C@@]5(C)CC[C@H](O)[C@@](C)(CO)[C@@H]5C[C@H](O)[C@]43C)[C@@H]12
EC50 ([1]; pc-12): Not Active | viability at 30 µM [2]: 110%

CC(=O)[C@@H]1CC[C@]2(C(=O)O)CC[C@]3(C)[C@H](C[C@@H](O)[C@@H]4[C@@]5(C)CCC(=O)C(C)(C)[C@@H]5CC[C@]43C)[C@@H]12
EC50 [1, 3]: 10 nM | viability at 30 µM [2]: 102%

— ChEMBL document CHEMBL4725322, “New 30-norlupane derivatives through chemical-microbial semi-synthesis of betulinic acid and their neuroprotective effect” (Bioorg Med Chem Lett, 2020)
